According to article PMC7558026, “Exploring and applying the substrate promiscuity of a C-glycosyltransferase in the chemo-enzymatic synthesis of bioactive C-glycosides” (Nature Communications, 2020):
Where a chain is given by its changes, count along the chain named. Names may count otherwise. “And” between values parts separate entries of the source, which are not always exact repeats. Equal values may be shown once.

How the values were obtained:
SGLT2 = biological target: T1, SGLT2 (Homo sapiens, UniProt P31639); test: 1-NBDG uptake in HEK293 cells stably expressing SGLT2; assay type: cell-based; details: triplicate; for inhibition at 10 µM: HEK293, compound at 10 μM, read-out: SGLT2 inhibitory rates; for SGLT2 inhibitory rates: compound at 10 μM, 10 µM
T1 construct: Human full-length SGLT2 cDNA (NM_003041.3) was synthesized; expressed in transfected cells; host or cells: HEK293, retroviral transduction with pMSCVpuro-SGLT2, puromycin selected
T1 sequence (P31639 1-672): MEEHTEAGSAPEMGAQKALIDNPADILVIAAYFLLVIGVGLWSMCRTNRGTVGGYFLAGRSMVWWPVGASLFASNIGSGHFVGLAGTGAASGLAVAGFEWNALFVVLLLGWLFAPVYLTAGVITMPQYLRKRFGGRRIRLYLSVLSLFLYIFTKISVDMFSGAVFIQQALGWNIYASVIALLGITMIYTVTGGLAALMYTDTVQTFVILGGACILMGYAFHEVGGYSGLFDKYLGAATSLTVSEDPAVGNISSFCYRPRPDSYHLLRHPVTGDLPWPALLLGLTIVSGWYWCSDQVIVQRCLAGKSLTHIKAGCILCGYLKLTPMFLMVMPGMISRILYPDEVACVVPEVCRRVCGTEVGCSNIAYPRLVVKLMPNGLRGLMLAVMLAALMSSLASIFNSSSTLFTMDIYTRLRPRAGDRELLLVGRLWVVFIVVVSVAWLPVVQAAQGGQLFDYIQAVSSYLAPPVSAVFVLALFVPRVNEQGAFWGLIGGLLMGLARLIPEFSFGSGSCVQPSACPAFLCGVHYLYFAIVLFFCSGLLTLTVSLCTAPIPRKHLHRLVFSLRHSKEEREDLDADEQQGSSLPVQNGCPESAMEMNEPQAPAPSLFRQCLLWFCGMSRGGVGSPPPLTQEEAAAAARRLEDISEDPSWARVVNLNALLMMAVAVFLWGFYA

SGLT1 = biological target: T2, SGLT1 (Homo sapiens, UniProt P13866); test: 1-NBDG uptake in HEK293 cells stably expressing SGLT1; assay type: cell-based; details: HEK293, compound at 10 μM; triplicate; read-out: SGLT1 inhibitory rates
T2 construct: The full-length SGLT1 cDNA was obtained by PCR with forward primer; expressed in transfected cells
T2 sequence (P13866 1-664): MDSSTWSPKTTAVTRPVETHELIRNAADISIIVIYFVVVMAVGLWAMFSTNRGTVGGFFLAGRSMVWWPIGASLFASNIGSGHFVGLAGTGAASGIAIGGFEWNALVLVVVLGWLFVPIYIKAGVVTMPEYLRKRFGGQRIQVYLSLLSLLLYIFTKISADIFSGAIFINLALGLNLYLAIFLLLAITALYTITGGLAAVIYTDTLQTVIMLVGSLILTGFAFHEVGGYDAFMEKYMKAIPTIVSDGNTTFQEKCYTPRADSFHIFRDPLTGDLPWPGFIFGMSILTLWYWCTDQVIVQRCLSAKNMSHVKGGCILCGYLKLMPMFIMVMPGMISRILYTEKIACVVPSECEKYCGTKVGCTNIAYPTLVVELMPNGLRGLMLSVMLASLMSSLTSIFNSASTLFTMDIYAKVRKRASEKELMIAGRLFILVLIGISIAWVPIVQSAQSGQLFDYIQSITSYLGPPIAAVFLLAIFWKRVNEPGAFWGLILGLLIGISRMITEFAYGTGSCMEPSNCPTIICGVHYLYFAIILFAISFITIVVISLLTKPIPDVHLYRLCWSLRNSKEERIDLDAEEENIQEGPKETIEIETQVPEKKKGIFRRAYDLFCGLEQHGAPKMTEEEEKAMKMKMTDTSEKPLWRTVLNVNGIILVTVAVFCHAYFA

[1] = tested on: Influenza A/WSN/33 (H1N1); test: microbe, parasite or virus in culture; assay type: cell-based; details: read-out: Inhibitory Rates, anti-influenza A virus activity
ICR mice = test: Oral glucose-tolerance test (OGTT) in normal ICR mice; assay type: in vivo; details: individual mice
Experimental: The hypoglycemic effect of 46a was firstly evaluated by oral glucose-tolerance test (OGTT) in mice with normal blood glucose levels. Male Institute of Cancer Research (ICR) mice weighing 24–26 g were obtained from Beijing Vital River Laboratory Animal Technology Co., Ltd (Beijing, China) and divided into three groups (n = 7–8). […] After 2 h of fasting, blood samples were collected from the tails for determination of baseline values of blood glucose (0 min). The mice were then orally administered glucose (2 g kg^‒1 BW), and blood samples were collected at 15, 30, 60, and 120 min. A glucose oxidase (GOD) assay was used for blood glucose-level measurement. The values of area under the glucose-time curve (AUC) were calculated.

alloxan-induced DM mice = test: Hypoglycemic effect in alloxan-induced diabetic mellitus (DM) mice; assay type: in vivo; details: individual mice
Experimental: Type 1 diabetes mellitus (T1DM) mice were established by intravenous injection of alloxan tetrahydrate (68 mg kg^‒1 BW). […] Nonfasting blood glucose was kinetically monitored at 1, 2, 4, 6, 8, 24, and 48 h after treatment with 46a.

KKAy mice [2] = test: Hypoglycemic effect in T2DM KKAy mice, blood glucose; assay type: in vivo; details: individual mice
Experimental: (§1) To evaluate the hypoglycemic effect of 46a in type 2 diabetes mellitus (T2DM), female KKAy mice weighing 42–48 g were obtained from the Animal Center of the Institute of Laboratory Animal Sciences, Chinese Academy of Medical Sciences and Peking Union Medical College. […] Blood samples were collected at 1, 2, 4, 6, 8, 24, and 48 h after treatment. […] The glucose levels in urine 4 h and 6 h after administration were also determined using a Biosen C-Line Glucose analyzer (EKF Diagnostics, Germany).

KKAy mice [3] = test: Urinary glucose excretion in T2DM KKAy mice; assay type: in vivo; details: 46a 100 mg kg^‒1 or dapagliflozin 5mg/kg, individual mice
Experimental: as §1

[4] = substrate: O=C1C[C@@](O)(c2ccc(O)cc2)Oc2cc(O)cc(O)c21; test: Kinetic parameters of AbCGT variant V183E; assay type: biochemical, Aloe barbadensis; details: other: V183E, UDP-Glc as donor; pH 7.4; 30.0 °C
Experimental: (§2) Assays were performed in a final volume of 100 μL 50 mM Tris-HCl (pH 7.4) at 30 °C, and contained purified recombinant AbCGT (1.5 μg) and saturating UDP-Glc (5 mM) while varying phloracetophene (11) and phloretin (17) concentrations (5–500 μM), respectively. The reactions terminated by the addition of 200 μL of ice-cold methanol. Subsequently, samples were centrifuged at 15,000 × g for 30 min to collect the supernatant, and aliquots were analyzed by HPLC as described above. All experiments were performed in triplicate. The value of Km was calculated with the method of Lineweaver–Burk plot.
(§3) Site-saturation mutagenesis of AbCGT at residue 183 was performed by PCR using pET28a-AbCGT as a template and the corresponding degenerate primers, which are listed in Supplementary Table 5. PCR products were purified and transformed into Trans1-T1 (DE3) E. coli. The sequences of pET28a-AbCGT mutants were confirmed by sequencing, and transformed into Transetta (DE3) E. coli for heterologous expression following protein purification.

[5] = substrate: O=C1C[C@@](O)(c2ccc(O)cc2)Oc2cc(O)cc(O)c21; test: Kinetic parameters of AbCGT variant V183D; assay type: biochemical, Aloe barbadensis; details: other: V183D, UDP-Glc as donor; pH 7.4; 30.0 °C
Experimental: as §2, §3

OCC1OC(c2c(O)cc(O)c(Cc3ccc4nccnc4c3)c2O)C(O)C(O)C1O (stereo not shown) [Compound 44a]
inhibition at 10 µM (SGLT2): > 96%
SGLT2 inhibitory rates (SGLT2): 96.6%
inhibition at 10 µM (SGLT1): 31.8%
inhibition at 20 µM ([1]; final concentration 20 μM, — = no inhibition activity): 82.8%

CCOc1ccc(Cc2cc([C@@H]3O[C@H](CO)[C@@H](O)[C@H](O)[C@H]3O)ccc2Cl)cc1 [Dapagliflozin, reference compound]
inhibition at 10 µM (SGLT2): 100%
SGLT2 inhibitory rates (SGLT2): 102.4%
inhibition at 10 µM (SGLT1): 98.4%
OD505nm (blood glucose, GOD assay) in OGTT (ICR mice; 0 min, ICR mice, oral 46a 100 mg kg^‒1 or dapagliflozin 5 mg kg^‒1): 0.188 and 0.144 and 0.165 and 0.159 and 0.17 and 0.15 and 0.177 and 0.146
OD505nm (blood glucose, GOD assay) in OGTT (ICR mice; 15 min after glucose 2 g kg^‒1, oral 46a 100 mg kg^‒1 or dapagliflozin 5 mg kg^‒1): 0.243 and 0.23 and 0.198 and 0.207 and 0.185 and 0.182 and 0.211 and 0.199
OD505nm (blood glucose, GOD assay) in OGTT (ICR mice; 30 min after glucose, same doses): 0.2 (2×) and 0.22 and 0.193 and 0.178 and 0.196 and 0.205 and 0.204
OD505nm (blood glucose, GOD assay) in OGTT (ICR mice; 60 min after glucose, same doses): 0.209 and 0.178 and 0.176 and 0.169 and 0.175 and 0.171 and 0.182 and 0.185
OD505nm (blood glucose, GOD assay) in OGTT (ICR mice; 120 min after glucose, same doses): 0.173 and 0.17 and 0.162 and 0.165 (2×) and 0.166 and 0.157 and 0.167
OD505nm (nonfasting blood glucose) (alloxan-induced DM mice; 0h, alloxan-induced DM mice, single dose 46a 100 mg kg^‒1 or dapagliflozin 5 mg kg^‒1): 0.567 and 0.574 and 0.561 and 0.564 and 0.434 and 0.496 and 0.426 and 0.589
OD505nm (nonfasting blood glucose) (alloxan-induced DM mice; 1h, same doses): 0.393 and 0.333 and 0.301 and 0.52 and 0.314 and 0.35 and 0.222 and 0.29
OD505nm (nonfasting blood glucose) (alloxan-induced DM mice; 2h, same doses): 0.27 and 0.388 and 0.281 and 0.364 and 0.279 and 0.346 and 0.193 and 0.231
OD505nm (nonfasting blood glucose) (alloxan-induced DM mice; 4h, same doses): 0.352 and 0.41 and 0.322 and 0.471 and 0.197 and 0.266 and 0.208 and 0.227
OD505nm (nonfasting blood glucose) (alloxan-induced DM mice; 8h, same doses): 0.347 and 0.446 and 0.312 and 0.421 and 0.195 and 0.25 and 0.231 and 0.327
OD505nm (nonfasting blood glucose) (alloxan-induced DM mice; 24h, same doses): 0.536 and 0.578 and 0.561 and 0.735 and 0.409 and 0.563 and 0.408 and 0.501
OD505nm (nonfasting blood glucose) (alloxan-induced DM mice; 48h, same doses): 0.513 and 0.594 and 0.579 and 0.796 and 0.531 and 0.647 and 0.477 and 0.584
blood glucose (KKAy mice [2]; 0h, KKAy mice, single dose 46a 100 mg kg^‒1 or dapagliflozin 5 mg kg^‒1): 376.7 mg/dL and 390 mg/dL and 405.5 mg/dL and 293.3 mg/dL and 575.6 mg/dL and 463.6 mg/dL and 388.1 mg/dL
blood glucose (KKAy mice [2]; 1h, same doses): 205.5 mg/dL and 228.8 mg/dL and 391.4 mg/dL and 363.9 mg/dL and 193.8 mg/dL and 248.6 mg/dL and 235.8 mg/dL
blood glucose (KKAy mice [2]; 2h, same doses): 279.3 mg/dL and 221.6 mg/dL and 285.4 mg/dL and 256 mg/dL and 184.4 mg/dL and 245.5 mg/dL and 256.8 mg/dL
blood glucose (KKAy mice [2]; 4h, same doses): 138 mg/dL and 102 mg/dL and 48.9 mg/dL and 98.1 mg/dL and 137.3 mg/dL and 182.3 mg/dL and 181.7 mg/dL
blood glucose (KKAy mice [2]; 6h, same doses): 123.1 mg/dL and 172.3 mg/dL and 164.6 mg/dL and 79.8 mg/dL and 177.1 mg/dL and 134.4 mg/dL
blood glucose (KKAy mice [2]; 8h, same doses): 91.6 mg/dL and 196.3 mg/dL and 150.5 mg/dL and 208.1 mg/dL and 124.9 mg/dL and 86.9 mg/dL
blood glucose (KKAy mice [2]; 24h, same doses): 254.9 mg/dL and 217.5 mg/dL and 176.2 mg/dL and 237.1 mg/dL and 286.9 mg/dL and 219.8 mg/dL
blood glucose (KKAy mice [2]; 48h, same doses): 395.7 mg/dL and 347.1 mg/dL and 229.8 mg/dL and 332.5 mg/dL and 388.1 mg/dL and 274.9 mg/dL
glucose in urine (KKAy mice [3]; 4h): 13936 mg/dL and 9326 mg/dL and 12440 mg/dL and 15728 mg/dL
glucose in urine (KKAy mice [3]; 6h): 15122 mg/dL and 8208 mg/dL and 11640 mg/dL and 11138 mg/dL

NC(=O)c1ncn([C@@H]2O[C@H](CO)[C@@H](O)[C@H]2O)n1 [Ribavirin, reference compound]
inhibition at 30 µM ([1]; ribavirin (positive control) at 30 μM): 85.6%

B1: AbCGT V183E (Aloe vera; V183E) (protein)
chain: MSNSGRPHVALLPSAGMGHLTPFCRLAALLSSRGGGDLDVSFITAEPTVSLKEYLQIRDLLSSFPSIKSHRFKVPELSPSQFPSSPDPFFQQWESIRRCAHLLPPLLASATALIIDTASASAVLPVAKQLNIPAYILFTSSASMLSLVAHFPSHVISSTSPSAPLMSNILIPGLKHPVPAAWEPPPLHVPGHIFSTLTVDNGRCLPEADGVIINTFDALEPEVLAALNGGRVAHGLPRVFAVGPLVAPPPPQQMEETGGGDYPIAWLDRQRDKSVVYVSFGSRTAMSPEQIRELAAGLERSGCSFLWVIKTKKVDRDEEETDLGALLGEGYVERVKGRGLVVNGWVEQEEILRHRAVGGFVSHCGWNSVTEAAVAGVRVLCWPRMGDQRLNAEVVRRSGVGVWMEEWSWEAEGGVVGGEEIGRRVKEMMEDEGLRDSAERVAEEARVALGVGGTSSKEMEEFISRIMMGS
Km [4]: 325.4 ± 19.2 µM
kcat/Km [4]: 2.09 min⁻¹ M⁻¹

B2: AbCGT V183D (Aloe vera; V183D) (protein)
chain: B1 chain with E183D
Km [5]: 209.3 ± 14.3 µM
kcat/Km [5]: 1.70 min⁻¹ M⁻¹
